Measurements as given in patent publication US5514694A, “Peptidyl ketoamides” (Georgia Tech Research Corp, priority 1993, dated 1996).

Target: T1, Calpain I from human erythrocytes (Homo sapiens, UniProt P07384)
T1 construct: Calpain I was purified from human erythrocytes; from tissue; host or cells: human erythrocytes
T1 sequence (P07384 1-714): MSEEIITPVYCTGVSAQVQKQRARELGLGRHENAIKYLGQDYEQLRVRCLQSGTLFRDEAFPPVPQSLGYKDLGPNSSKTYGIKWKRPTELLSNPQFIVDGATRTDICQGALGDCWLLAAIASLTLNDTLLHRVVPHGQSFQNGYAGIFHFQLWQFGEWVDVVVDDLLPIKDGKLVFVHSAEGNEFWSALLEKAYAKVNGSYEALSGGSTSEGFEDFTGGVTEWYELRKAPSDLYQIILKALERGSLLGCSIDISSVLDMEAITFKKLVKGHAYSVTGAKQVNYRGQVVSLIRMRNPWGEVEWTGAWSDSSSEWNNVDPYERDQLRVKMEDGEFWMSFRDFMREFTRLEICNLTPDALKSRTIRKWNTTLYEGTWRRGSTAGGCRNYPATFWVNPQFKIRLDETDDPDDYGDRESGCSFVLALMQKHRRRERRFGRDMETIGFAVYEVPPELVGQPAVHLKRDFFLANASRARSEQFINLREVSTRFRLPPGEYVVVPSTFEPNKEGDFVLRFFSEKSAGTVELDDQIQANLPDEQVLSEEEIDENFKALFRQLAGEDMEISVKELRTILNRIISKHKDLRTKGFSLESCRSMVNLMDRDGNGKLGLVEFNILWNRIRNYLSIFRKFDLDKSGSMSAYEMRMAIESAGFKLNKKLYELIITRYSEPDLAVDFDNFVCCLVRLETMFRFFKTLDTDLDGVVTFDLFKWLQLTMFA
T1 sequence (P04632 1-268 partner): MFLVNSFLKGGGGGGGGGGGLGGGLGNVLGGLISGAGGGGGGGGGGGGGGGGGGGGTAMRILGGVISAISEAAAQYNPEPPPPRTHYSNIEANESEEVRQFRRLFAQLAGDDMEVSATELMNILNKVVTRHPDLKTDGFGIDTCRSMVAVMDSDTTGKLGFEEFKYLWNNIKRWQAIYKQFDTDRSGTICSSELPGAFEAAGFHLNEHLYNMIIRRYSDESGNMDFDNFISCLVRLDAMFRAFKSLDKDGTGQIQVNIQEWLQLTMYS
Experiment: Calpain I inhibition, Suc-Leu-Tyr-AMC hydrolysis (KI)
Assay type: biochemical
Conditions: Table 1, Z-Leu--AA--CONHR; read-out: KI Cal I
Method: HEPES, heparin, and A23187 were obtained from Calbiochem. Suc-Leu-Tyr-AMC and chromogenic substrates were obtained from Sigma. Calpain I was purified from human erythrocytes according to the method of Kitahara (Kitahara et al., J. Biochem. 95, 1759-1766) omitting the Blue-Sepharose step. Calpain II from rabbit muscle and cathepsin B were purchased from Sigma. Papain was purchased from Calbiochem.
Peptide α-ketoamides were assayed as reversible enzyme inhibitors. Various concentrations of inhibitors in Me2 SO were added to the assay mixture which contained buffer and substrate. The reaction was started by the addition of the enzyme and the hydrolysis rates were followed spectrophotometrically or fluorimetrically.
Calpain I from human erythrocytes and calpain II from rabbit were assayed using Suc-Leu-Tyr-AMC Sasaki et al., J. Biol. Chem. 259, 12489-12494 (1984); incorporated herein by reference!, and the AMC (7-amino-4-methylcoumarin) release was followed fluorimetrically (excitation at 380 nm, and emmision at 460 nm). Calpains were assayed in 25 mM Tris pH=8.0, 10 mM CaC12. Fluorescence was followed using a Gilson FL-1A fluorometer or a Perkin-Elmer 203 Fluorescence spectrometer. Cathepsin B was assayed in 20 mM sodium acetate pH=5.2, 0.5 mM dithiothreitol using Bz-Phe-Val-Arg-p-nitroanilide as substrate. Alternately, cathepsin B was assayed with Z-Arg-Arg-AFC Barrett and Kirschke, Methods Enzymol. 80, 535-561 (1981); incorporated herein by reference!, and the AFC (7-amino-4-trifluoromethylcoumarin) release was followed fluorimetrically (excitation at 400 nm and emmision at 505 nm). Papain was assayed in 100 mM KPO4, 1 mM EDTA, 2.5 mM cysteine pH=6.0 using Bz-Arg-AMC or Bz-Arg-NA Kanaoka et al., Chem. Pharm. Bull. 25, 3126-3128 (1977); incorporated herein by reference! as a substrate. The AMC (7-amino-4-methylcoumarin) release was followed fluorimetrically (excitation at 380 nm, and emmision at 460 nm). Enzymatic hydrolysis rates were measured at various substrate and inhibitor concentrations, and KI values were determined by either Lineweaver-Burk plots or Dixon plots.
A 0.1M Hepes, 0.5M NaCl, pH 7.5 buffer was utilized for human leukocyte elastase (HLE), porcine pancreatic elastase (PPE), chymotrypsin and cathepsin G. A 0.1 Hepes, 0.01 M CaCl2, pH 7.5 buffer was utilized for trypsin, plasmin, and coagulation enzymes. A 50 mM Tris.HCl, 2 mM EDTA, 5 mM cysteine, pH 7.5 was used as a buffer for papain. A 88 mM KH2 PO4, 12 mM Na2 HPO4, 1.33 mM EDTA, 2.7 mM cysteine, pH 6.0 solution was used as a buffer for cathepsin B. A 20 mM Hepes, 10 mM CaCl2, 10 mM mercatoethanol, pH 7.2 buffer was utilized for calpain I and calpain II.

Compound | Ki
CCC(NC(=O)C(CC(C)C)NC(=O)OCc1ccccc1)C(=O)C(=O)NCCCN1CCCc2ccccc21 (stereo not drawn) [Z-Leu-Abu-CONH--(CH2)3 -1-Tetrahydroquinolinyl] | 370 nM
CCC(NC(=O)C(CC(C)C)NC(=O)OCc1ccccc1)C(=O)C(=O)NCc1nc(C)cs1 (stereo not drawn) [Z-Leu-Abu-CONH-CH2 -2-(4-methylthiazole), Z-Leu-Abu-CONH--CH2 -2-(4-Methyl-2-thiazolyl)] | 34000 nM
CCC(NC(=O)[C@H](CC(C)C)NC(=O)OCc1ccccc1)C(=O)C(=O)NCc1ccc2ccccc2n1 (stereo partly drawn) [Z-Leu-Abu-CONH-CH2 -2-quinolinyl, Z-Leu-Abu-CONH--CH2 -2-Quinolinyl] | 130 nM
CCC(NC(=O)C(CC(C)C)NC(=O)OCc1ccccc1)C(=O)C(=O)NCc1ccc[n+]([O-])c1 (stereo not drawn) [Z-Leu-Abu-CONH-CH2 -3-pyridyl-N-oxide, Z-Leu-Abu-CONH--CH2 -3-Pyridyl-N-oxide] | 9500 nM
CCC(NC(=O)C(CC(C)C)NC(=O)OCc1ccccc1)C(=O)C(=O)NCc1cc(=O)[nH]c(=O)[nH]1 (stereo not drawn) [Z-Leu-Abu-CONH-CH2 -6-uracil, Z-Leu-Abu-CONH--CH2 -6-Uracil] | 9000 nM
CC(C)CC(NC(=O)OCc1ccccc1)C(=O)NC(Cc1ccccc1)C(=O)C(=O)NCCNC(=O)CCCCC1SCC2NC(=O)NC21 (stereo not drawn) [Z-Leu-Phe-CONH-(CH2)2 NH-biotinyl, Z-Leu-Phe-CONH--(CH2)2 NH-Biotinyl] | 220 nM
CC(C)CC(NC(=O)OCc1ccccc1)C(=O)NC(Cc1ccccc1)C(=O)C(=O)NCCCN1CCCc2ccccc21 (stereo not drawn) [Z-Leu-Phe-CONH--(CH2)3-1-Tetrahydroquinolinyl] | 380 nM
CC(C)CC(NC(=O)OCc1ccccc1)C(=O)NC(Cc1ccccc1)C(=O)C(=O)NCCCN1CCc2ccccc2C1 (stereo not drawn) [Z-Leu-Phe-CONH--(CH2)3-2-Tetrahydroisoquinolinyl] | 220 nM

Same assay, conditions: Table 2, Z-Leu--AA--CONH--CH2 CH(OH)-R; read-out: KI Cal I

Compound | Ki
CCC(NC(=O)C(CC(C)C)NC(=O)OCc1ccccc1)C(=O)C(=O)NCC(O)c1cccc(Oc2ccc(Cl)c(Cl)c2)c1 (stereo not drawn) [Z-Leu-Abu-CONH--CH2 CH(OH)C6 H4 -3-OC6 H3 (3,4-Cl2)] | 270 nM
CCC(NC(=O)C(CC(C)C)NC(=O)OCc1ccccc1)C(=O)C(=O)NCC(O)c1cccc2ccccc12 (stereo not drawn) [Z-Leu-Abu-CONH-CH2 CH(OH)-1-C10 H7, Z-Leu-Abu-CONH--CH2 CH(OH)-1-C10 H7] | 120 nM
CCC(NC(=O)C(CC(C)C)NC(=O)OCc1ccccc1)C(=O)C(=O)NCC(O)c1ccc2ccccc2c1 (stereo not drawn) [Z-Leu-Abu-CONH-CH2 CH(OH)-2-C10 H7, Z-Leu-Abu-CONH--CH2 CH(OH)-2-C10 H7] | 350 nM
CC(C)CC(NC(=O)OCc1ccccc1)C(=O)NC(Cc1ccccc1)C(=O)C(=O)NCC(O)c1cccc(Oc2ccc(Cl)c(Cl)c2)c1 (stereo not drawn) [Z-Leu-Phe-CONH--CH2 CH(OH)C6 H4 -3-OC6 H3 (3,4-Cl2)] | 590 nM
CC(C)CC(NC(=O)OCc1ccccc1)C(=O)NC(Cc1ccccc1)C(=O)C(=O)NCC(O)c1c(F)c(F)c(F)c(F)c1F (stereo not drawn) [Z-Leu-Phe-CONH-CH2 CH(OH)-C6 F5, Z-Leu-Phe-CONH--CH2 CH(OH)C6 F5] | 700 nM
CC(C)CC(NC(=O)OCc1ccccc1)C(=O)NC(Cc1ccccc1)C(=O)C(=O)NCC(O)c1cccc(Oc2ccccc2)c1 (stereo not drawn) [Z-Leu-Phe-CONH-CH2 CH(OH)-C6 H4 (3-OPh), Z-Leu-Phe-CONH--CH2 CH(OH)C6 H4 (3-OPh)] | 600 nM
Z-Leu-Abu-CONH--CH2 CH(OH)C6 H2 (2,4,6-(OCH3)3) | 380 nM
Z-Leu-Phe-CONH--CH2 CH(OH)C6 H4 (3-CF3) [Z-Leu-Phe-CONH-CH2 CH(OH)-C6 H4 (3-CF3)] | 460 nM

Same assay, conditions: Table 3, M1 CO-Leu--AA--CONH-R; read-out: KI Cal I

Compound | Ki
CCNC(=O)C(=O)C(CC)NC(=O)C(CC(C)C)NC(=O)c1nccc2ccccc12 (stereo not drawn) [1-isoquinolinyl-CO-Leu-Abu-CONH-Et, 1-Isoquinolinyl-CO-Leu-Abu-CONHEt] | 350 nM
CCNC(=O)C(=O)C(CC)NC(=O)C(CC(C)C)NC(=O)c1ccco1 (stereo not drawn) [2-furyl-CO-Leu-Abu-CONH-Et, 2-Furyl-CO-Leu-Abu-CONHEt] | 850 nM
CCNC(=O)C(=O)C(CC)NC(=O)C(CC(C)C)NC(=O)c1cnccn1 (stereo not drawn) [2-pyrazinyl-CO-Leu-Abu-CONH-Et, 2-Pyrazinyl-CO-Leu-Abu-CONHEt] | 300 nM
CCNC(=O)C(=O)C(CC)NC(=O)C(CC(C)C)NC(=O)C1CCCO1 (stereo not drawn) [2-tetrahydrofuryl-CO-Leu-Abu-CONH-Et, 2-Tetrahydrofuryl-CO-Leu-Abu-CONHEt] | 18500 nM
CCNC(=O)C(=O)C(CC)NC(=O)C(CC(C)C)NC(=O)c1cccnc1 (stereo not drawn) [3-pyridyl-CO-Leu-Abu-CONH-Et, 3-Pyridyl-CO-Leu-Abu-CONHEt] | 1300 nM
CCNC(=O)C(=O)C(CC)NC(=O)C(CC(C)C)NC(=O)N1CCOCC1 (stereo not drawn) [4-morpholinyl-CO-Leu-Abu-CONH-Et, 4-Morpholinyl-CO-Leu-Abu-CONHEt] | 7900 nM
CCNC(=O)C(=O)[C@H](CC)NC(=O)[C@H](CC(C)C)NC(=O)CCC(=O)OC [CH3 OCO(CH2)2-CO-Leu-Abu-CONH-Et, CH3 OCO(CH2)2 CO-Leu-Abu-CONHEt] | 3800 nM
CCC(NC(=O)C(CC(C)C)NC(=O)C(c1ccccc1)c1ccccc1)C(=O)C(=O)NCC(O)c1ccccc1 (stereo not drawn) [Ph2 CH-CO-Leu-Abu-CONH-CH2 CH(OH)Ph, Ph2 CHCO-Leu-Abu-CONH--CH2 CH(OH)Ph] | 750 nM
Ph2 CHCO-Leu-Abu-CONHEt [Ph2 CH-CO-Leu-Abu-CONH-Et] | 5000 nM
